In US20040063681A1, “Methods for using gold (III) complexes as anti-tumor and anti-HIV agents” (priority 2002, published 2004):
Several values for one entry are separate records, joined by “and”; a condition that tells them apart may be missing. Equal entries are not always repeated.

Columns and labels:
[1] = molecular target: T1, HIV-1 reverse transcriptase (Human immunodeficiency virus type 1 group M subtype B, UniProt P04585); test: HIV-1 reverse transcriptase activity, ELISA method; assay type: biochemical; details: for HIV-1 RT inhibition: drug concentration fixed at 6 μM; for HIV-1 RT inhibition activity compared with the corresponding metal complex (1j, 1k): free-base porphyrins
T1 construct: treatment of HIV-1 RT in Lysis buffer (2 ng, 128.7 μL) with Complex 1j
Protocol: HIV-1 reverse transcriptase activities were measured by an ELISA method (see Eberle et al, J. Virol. Methods, 40:347-356 (1992) performed by incubating the enzyme with digoxigenin-labeled deoxyuridin-5′-triphosphate (dUTP) and the biotin-labeled analogue during reverse transcription starting from the template/primer hybrid poly(A)•oligo(dT)15. After reverse transcription, the newly synthesized DNA was immobilized onto streptavidin-coated ELISA wells, and the incorporation of the dioxigenin-labeled dUTP was assayed by chemiluminescence method. For example, treatment of HIV-1 RT in Lysis buffer (2 ng, 128.7 μL) with Complex 1j (1.3 μL of […] stock solution) dissolved in TBS at 37° C. produced significant RT activity inhibition (˜95%) after 30 min incubation.

calf thymus DNA = test: UV-vis absorption titration with calf thymus DNA; assay type: binding; details: for hypochromicity / intrinsic binding constant (Kb): Tris buffer
Protocol: The calf thymus DNA was purchased from Sigma-Aldrich Chemical Co. and was purified by phenol-chloroform extraction. The DNA was dissolved in buffer (5 mM Tris, 5 mM NaCl, pH 7.2). The concentration (per base pair) of calf thymus DNA was determined spectrophotometrically on the basic of ε260, 13,200 M^−1cm^−1bp.
Absorption Titration. The binding interaction of the gold(III) porphyrins to duplex DNA has been studied by UV-vis spectroscopy.
where [ctDNA] is the concentration of DNA, Δεap═|εA−εB| in which εA=Aobs/[complex], and Δε=|εB−εF|. εB and εF correspond to the extinction coefficient of DNA-bound gold(III) porphyrin and the free gold(III) porphyrins, respectively.
The effect of temperature on the intrinsic binding constants was investigated. Using the van't Hoff equation (2): […]

Question: Which results are given for `Cc1cn(C2CC(N=[N+]=[N-])C(CO)O2)c(=O)[nH]c1=O` (stereo not drawn) [AZT, 3′-azido-2′,3′-dideoxythymidine]?
Answer: inhibition at 0.008 µM ([1]; AZT 8 nM alone, read-out: HIV-1 RT enzyme inhibition, alone): 17 to 39%; IC50 ([1]; ELISA, mean ± SE of at least three determinations, read-out: IC50 HIV-1 RT): 69 ± 8 nM

Question: Which results are given for `CCc1c(CC)c2[n]3c1C=c1c(CC)c(CC)c4[n]1[Au]31[n]3c(c(CC)c(CC)c3C=c3c(CC)c(CC)c([n]31)=C2)C=4` [Complex 1h]?
Answer: hypochromicity (calf thymus DNA; 291.4 K): 30.1%; intrinsic binding constant (Kb) (calf thymus DNA; 291.4 K): 4.14 × 10^6 dm^3mol^−1; hypochromicity (calf thymus DNA; 296.8 K): 29.2%; intrinsic binding constant (Kb) (calf thymus DNA; 296.8 K): 2.73 × 10^6 dm^3mol^−1; hypochromicity (calf thymus DNA; 302.2 K): 28.0%; intrinsic binding constant (Kb) (calf thymus DNA; 302.2 K): 1.51 × 10^6 dm^3mol^−1; hypochromicity (calf thymus DNA; 305.5 K): 26.1%; intrinsic binding constant (Kb) (calf thymus DNA; 305.5 K): 1.27 × 10^6 dm^3mol^−1; hypochromicity (calf thymus DNA; 311.2 K): 24.4%; intrinsic binding constant (Kb) (calf thymus DNA; 311.2 K): 0.96 × 10^6 dm^3mol^−1; ΔS° (calf thymus DNA; binding to calf thymus DNA, van't Hoff analysis): −17.3 calmol^−1K^−1 and −17.3 ± 0.7 calmol^−1K^−1; ΔG° (298 K) (calf thymus DNA; binding to calf thymus DNA, van't Hoff analysis, 298 K): −8.2 ± 0.7

Question: With `[Au+].[Cl-].c1ccc(P(c2ccccc2)c2ccccc2)cc1` [[(Ph3P)Au^ICl]] as the compound, how does the “HIV-1 RT inhibition” value [1] read?
Answer: 43%

Question: `C[n+]1ccc(-c2c3nc(c(-c4cc[n+](C)cc4)c4ccc([nH]4)c(-c4cc[n+](C)cc4)c4nc(c(-c5cc[n+](C)cc5)c5ccc2[nH]5)C=C4)C=C3)cc1` [[H2TMPyP]^4+, Meso-tetrakis(N-methylpyridinium-4-yl)porphyrin] was tested. Which “HIV-1 RT inhibition activity compared with the corresponding metal complex (1j, 1k)” value [1] did it give?
Answer: substantially lower HIV-1 RT inhibition activities

Question: Which “HIV-1 RT inhibition activity compared with the corresponding metal complex (1j, 1k)” value [1] does the source give for `O=S(=O)(O)c1ccc(-c2c3nc(c(-c4ccc(S(=O)(=O)O)cc4)c4ccc([nH]4)c(-c4ccc(S(=O)(=O)O)cc4)c4nc(c(-c5ccc(S(=O)(=O)O)cc5)c5ccc2[nH]5)C=C4)C=C3)cc1` [[H2TPPS]^4−, meso-tetrakis(4-sulfonatophenyl)porphyrin] here?
Answer: substantially lower HIV-1 RT inhibition activities

Question: Which “HIV-1 RT inhibition” value [1] does the source give for `C[n+]1ccc(-c2c3nc(c(-c4cc[n+](C)cc4)c4ccc([nH]4)c(-c4cc[n+](C)cc4)c4nc(c(-c5cc[n+](C)cc5)c5ccc2[nH]5)C=C4)C=C3)cc1.[Cl-].[Cl-].[Cl-].[Cl-].[Zn]` [[Zn^II(TMPyP)]Cl4] here?
Answer: 32%
